Reference: ChEMBL document CHEMBL1201862, “PubChem BioAssay data set” (2004)
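Step 1: Grow cells in 96-well plates. Step 2: Expose to compound for 48 hours at 5 concentrations. Step 3: Interpolate endpoints linearly; if unreached, use highest concentration. GI50: concentration for 50% inhibition of growth.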 The source made the active and inactive calls. Cut-off read from the data, not from the text of the source: active = GI50 up to about 1.1 µM and inactive = higher.

How the values were obtained:
Test in all cases: NCI tumour cell line growth inhibition, 48 h
[1] = tested on: CCRF-CEM
[2] = tested on: NCI-H226
[3] = tested on: SN12C
[4] = tested on: HCT-15
[5] = tested on: OVCAR-8
[6] = tested on: KM12
[7] = tested on: SF-268
[8] = tested on: NCI-H460
[9] = tested on: UO-31
[10] = tested on: ACHN
[11] = tested on: NCI-H23
[12] = tested on: HT-29
[13] = tested on: Malme-3M
[14] = tested on: SNB-19
[15] = tested on: HCT-116
[16] = tested on: M14
[17] = tested on: HOP-92

Compound	GI50 [1]	GI50 [2]	GI50 [3]	GI50 [4] [µM]	GI50 [5]	GI50 [6]	GI50 [7]	GI50 [8]	GI50 [9]	GI50 [10]	GI50 [11]	GI50 [12]	GI50 [13]	GI50 [14]	GI50 [15]	GI50 [16]	GI50 [17]
O=C(c1ccc(Cl)cc1Cl)N(/N=C/C=C/c1ccccc1)c1nnc(-c2ccccc2)c(-c2ccccc2)n1	> 100 µM (inactive)	> 100 µM (inactive)	> 100 µM (inactive)	> 100	> 100 µM (inactive)	> 100 µM (inactive)	> 100 µM (inactive)	> 100 µM (inactive)	76.4 µM (inactive)	> 100 µM (inactive)	> 100 µM (inactive)	> 100 µM (inactive)	> 100 µM (inactive)	> 100 µM (inactive)	–	–	–
COc1ccc(OC)c2c1C(=O)C1CC1(Br)C2=O (stereo unspecified)	> 100 µM (inactive)	–	> 100 µM (inactive)	> 100	> 100 µM (inactive)	> 100 µM (inactive)	> 100 µM (inactive)	> 100 µM (inactive)	> 100 µM (inactive)	> 100 µM (inactive)	> 100 µM (inactive)	> 100 µM (inactive)	> 100 µM (inactive)	> 100 µM (inactive)	> 100 µM (inactive)	> 100 µM (inactive)	–
COc1cc(OC(=O)c2c(O)cc(O)c(O)c2C)cc(C)c1C(=O)Oc1cc(C)c(C(=O)O)c(O)c1	> 100 µM (inactive)	> 100 µM (inactive)	> 100 µM (inactive)	> 100	> 100 µM (inactive)	> 100 µM (inactive)	> 100 µM (inactive)	> 100 µM (inactive)	> 100 µM (inactive)	> 100 µM (inactive)	> 100 µM (inactive)	> 100 µM (inactive)	> 100 µM (inactive)	–	> 100 µM (inactive)	> 100 µM (inactive)	> 100 µM (inactive)
Cn1nc(-c2ccccc2)c(C(=O)/C=C/c2ccc(F)cc2)c(N2CCCC2)c1=O	5.36 µM (inactive)	–	16.9 µM (inactive)	12.2	15.1 µM (inactive)	–	14.3 µM (inactive)	21.7 µM (inactive)	> 10 µM (inactive)	24.1 µM (inactive)	10.9 µM (inactive)	4.99 µM (inactive)	–	17.2 µM (inactive)	6.5 µM (inactive)	15.9 µM (inactive)	13.9 µM (inactive)
CC(C)=CCC(OC(=O)C=C(C)C)c1cc(O)c2c(c1O)C(=O)C=CC2=O (stereo unspecified)	0.0208 µM (active)	2.97 µM (inactive)	1.04 µM (active)	0.398	0.33 µM (active)	2.42 µM (inactive)	1.39 µM (inactive)	2.75 µM (inactive)	3.3 µM (inactive)	–	–	1.67 µM (inactive)	0.428 µM (active)	7.46 µM (inactive)	0.279 µM (active)	–	0.469 µM (active)
Clc1ccccc1/C=C/c1cscn1	> 100 µM (inactive)	–	> 100 µM (inactive)	> 100	–	> 100 µM (inactive)	> 100 µM (inactive)	> 100 µM (inactive)	88.1 µM (inactive)	> 100 µM (inactive)	> 100 µM (inactive)	> 100 µM (inactive)	> 100 µM (inactive)	> 100 µM (inactive)	> 100 µM (inactive)	> 100 µM (inactive)	–
CCOC(=O)c1cc2c(OCc3ccccc3)c(OC)cc3c2c(n1)N(c1ccc(OC)cc1)C(C)C3 (stereo unspecified)	> 50 µM (inactive)	–	> 50 µM (inactive)	> 50	> 50 µM (inactive)	–	> 50 µM (inactive)	49.9 µM (inactive)	> 50 µM (inactive)	> 50 µM (inactive)	> 50 µM (inactive)	–	> 50 µM (inactive)	> 50 µM (inactive)	> 50 µM (inactive)	> 50 µM (inactive)	8.91 µM (inactive)
O=C1[C@@H]2C(c3c(Cl)cccc3Cl)=NO[C@@H]2C(=O)N1c1ccc(Cc2ccc(N3C(=O)[C@H]4C(c5c(Cl)cccc5Cl)=NO[C@H]4C3=O)cc2)cc1	> 100 µM (inactive)	> 100 µM (inactive)	> 100 µM (inactive)	> 100	> 100 µM (inactive)	> 100 µM (inactive)	> 100 µM (inactive)	> 100 µM (inactive)	90.6 µM (inactive)	> 100 µM (inactive)	> 100 µM (inactive)	> 100 µM (inactive)	> 100 µM (inactive)	–	–	> 100 µM (inactive)	> 100 µM (inactive)
CSc1ccc(/C=C2/C[N+](C)(C)C/C(=C/c3ccc(SC)cc3)C2=O)cc1	3.56 µM (inactive)	32.1 µM (inactive)	7.89 µM (inactive)	47	8.89 µM (inactive)	4.85 µM (inactive)	10.5 µM (inactive)	–	> 100 µM (inactive)	18 µM (inactive)	> 10 µM (inactive)	–	4.16 µM (inactive)	–	–	13.5 µM (inactive)	24.5 µM (inactive)
NC(=O)c1ccc([N+](=O)[O-])cc1	> 100 µM (inactive)	> 100 µM (inactive)	> 100 µM (inactive)	> 100	> 100 µM (inactive)	> 100 µM (inactive)	> 100 µM (inactive)	> 100 µM (inactive)	> 100 µM (inactive)	–	> 100 µM (inactive)	> 100 µM (inactive)	> 100 µM (inactive)	> 100 µM (inactive)	–	> 100 µM (inactive)	–
C=C1C(=O)OC2/C=C(\C)C3OC3/C=C(/C(=O)OC)C(O)C(OC(=O)C3(C)OC3C)C12 (stereo unspecified)	0.397 µM (active)	15.1 µM (inactive)	2.39 µM (inactive)	1.53	1.25 µM (inactive)	2.95 µM (inactive)	15.3 µM (inactive)	5.41 µM (inactive)	11.2 µM (inactive)	3.14 µM (inactive)	1.85 µM (inactive)	1.65 µM (inactive)	1.52 µM (inactive)	–	1.11 µM (active)	1.9 µM (inactive)	2.86 µM (inactive)
CC#CC1C2CCCC1(CSc1ccccc1)NC(=O)O2 (stereo unspecified)	–	> 100 µM (inactive)	> 100 µM (inactive)	> 100	> 100 µM (inactive)	> 100 µM (inactive)	> 100 µM (inactive)	> 100 µM (inactive)	> 100 µM (inactive)	> 100 µM (inactive)	> 100 µM (inactive)	> 100 µM (inactive)	> 100 µM (inactive)	> 100 µM (inactive)	> 100 µM (inactive)	> 100 µM (inactive)	> 100 µM (inactive)
Cc1ccccc1-n1c(C)nc2c1C(=O)c1ccccc1C2=O	50.2 µM (inactive)	48.3 µM (inactive)	52.4 µM (inactive)	34.8	47.9 µM (inactive)	58.9 µM (inactive)	67.5 µM (inactive)	36.1 µM (inactive)	39.2 µM (inactive)	53.3 µM (inactive)	35.4 µM (inactive)	37.2 µM (inactive)	15.3 µM (inactive)	55.5 µM (inactive)	35.1 µM (inactive)	42 µM (inactive)	–
